In brackets after ≈: the same amount, converted by molar mass.
Details: buffer; pH 7.4; 200.0 µM

Row | SMILES | solubility kinetic [µg/mL]
1 | CC1CC(C)CN(S(=O)(=O)CC23CCC(CC2=O)C3(C)C)C1 (centres undefined) | 44.8 (≈ 137 µM)
2 | COc1ccccc1NC(=O)CCSc1nc(C)cc(C)n1 | 38.4 (≈ 121 µM)
3 | O=C(N[C@@H](Cc1ccccc1)C(=O)O)c1cccs1 | > 41.3
4 | O=C(O)CN1C(=O)S/C(=C\c2ccc3c(c2)OCO3)C1=O | 41 (≈ 133 µM)
5 | CCC(=O)Nc1ccc(C(=O)COC(=O)Cc2ccsc2)cc1 | 15.9 (≈ 48 µM)
6 | Cc1cccc(NC(=O)C2Cc3ccccc3O/C2=N\O)c1 (centres undefined) | 1.2 (≈ 4.05 µM)
7 | O=C(CSc1nncc2ccccc12)Nc1ccccc1 | > 44.3
8 | Fc1ccc(Oc2ccnc(Cl)n2)c(Cl)c1 | 16.9 (≈ 65.2 µM)
9 | CCOc1ncccc1C(=O)OCC(=O)NC(=O)NC(C)C | 44.6 (≈ 144 µM)
10 | CCCOc1ccc(/C=C2/C(=O)ON=C2C)cc1Cl | 27.9 (≈ 99.7 µM)
11 | CCOc1ccc(OCCCC(=O)N2CCN(S(=O)(=O)c3ccccc3C#N)CC2)cc1 | 27.2 (≈ 59.4 µM)
12 | CC(NC(=O)C(=O)Nc1nccs1)c1ccccc1 (centres undefined) | 35.4 (≈ 129 µM)
13 | CC(C)(C)c1ccc(OCCCCCCN2CCNCC2)cc1 | 31.9 (≈ 100 µM)
14 | O=C(Cc1ccccc1)NNC(=S)NC(=O)c1cccnc1 | > 47.2
15 | O=C(CSc1nc2cc(Cl)ccc2s1)NCC1CCCO1 (centres undefined) | > 51.4
16 | CCc1ccc(OCc2cnc(Cl)s2)cc1 | < 0.5
17 | O=C(Nc1cccc(C(F)(F)F)c1)OC1CN2CCC1CC2 (centres undefined) | > 47.1
18 | O=C(NCc1cccs1)c1cccn2c(=O)c3sccc3nc12 | 0.6 (≈ 1.76 µM)
19 | Cc1cccc(N2CCN(CC(=O)NCc3ccccc3)CC2)c1C | 43.6 (≈ 129 µM)
20 | CCc1ccc(NS(=O)(=O)c2c(C)noc2C)cc1 | > 42.1
21 | CC(CN1CCOCC1)OC(=O)Cc1ccccc1.Cl (centres undefined) | 33.3
22 | Cc1cccc(N2C(=NC(=O)c3ccccc3)SC3CS(=O)(=O)CC32)c1 (centres undefined) | < 0.4
23 | O=C(/C=C/c1ccccc1Cl)Nc1ccccc1 | 0.6 (≈ 2.33 µM)
24 | CSc1ccccc1C(=O)Nc1c(C)cccc1C | 22.9 (≈ 84.4 µM)

Row | SMILES | solubility kinetic [µg/mL]
25 | COc1ccc(NC(=O)c2cc(-c3ccco3)on2)c(OC)c1 | 0.8 (≈ 2.55 µM)
26 | Cl.Oc1ccc(Nc2ncnc3ccccc23)cc1 | 13.7
27 | O=C(COC(=O)C1CCCC1)Nc1cccc(Cl)c1Cl | 5.9 (≈ 18.7 µM)
28 | CCOC(=O)CNC(=O)CSc1nccn1Cc1ccco1 | > 48.5
29 | Oc1ccc(-c2csc(Nc3ccccn3)n2)c(O)c1 | 4.4 (≈ 15.4 µM)
30 | Cc1ccc(CN2CC(C(=O)Nc3ccncc3)CC2=O)cc1 (centres undefined) | > 46.4
31 | CNC(=O)C(=O)Nc1cc2c3c(c1)C(C)C(=O)N3CCC2 (centres undefined) | > 43.1
32 | O=C(COC(=O)CC1CC2CCC1C2)NCc1ccc(F)cc1 (centres undefined) | 46.1 (≈ 144 µM)
33 | O=C(Cc1ccc(Br)cc1)OCC(=O)N1CCCCCC1 | > 53.1
34 | CCOc1ccccc1C1CC(=O)Nc2cc(C)c(C)cc21 (centres undefined) | < 0.6
35 | COc1ccc(OC)c(NC(=O)COC(=O)/C=C/c2ccco2)c1 | 10.4 (≈ 31.4 µM)
36 | Cc1cc(C)c(C(=O)CSc2nnc(C)c(=O)[nH]2)cc1C | > 45.5
37 | O=C1NC2(CCCCCC2)C(=O)N1Cc1ccccc1Br | 17.1 (≈ 48.7 µM)
38 | Cl.Fc1ccc(-c2ccc(CNCc3ccccn3)o2)cc1 | 33.9
39 | CCCSC1C(C)=C(C)C(=O)N1Cc1ccccc1 (centres undefined) | 35.5 (≈ 129 µM)
40 | N/C(=N\OC(=O)/C=C/c1ccccc1)c1ccc(Cl)cc1 | 1.3 (≈ 4.32 µM)
41 | CCN(c1ccccc1)S(=O)(=O)c1cccc(C(=O)OCC(=O)Nc2ccc(NC(C)=O)cc2)c1 | 2.6 (≈ 5.25 µM)
42 | O=C(Nc1ccc(F)cc1)c1cccnc1Oc1ccccc1 | 4.3 (≈ 13.9 µM)
43 | O=C(CSc1ncccn1)Nc1ccc2c(c1)CCC2 | 37.9 (≈ 133 µM)
44 | CC1CCCN(CC(O)COc2ccc(-c3ccccc3)cc2)C1 (centres undefined) | 44.4 (≈ 136 µM)
45 | O=C(O)Cn1c(=O)c2c(c3ccccc31)CCC2 | > 36.5
46 | Cc1ccc(CNC(=O)CN(C)S(=O)(=O)c2ccc(F)cc2)cc1 | 1.8 (≈ 5.14 µM)
47 | O=C1NCCn2ccc(=O)cc21 | 21.6 (≈ 132 µM)
48 | CS(=O)(=O)N1CCN(c2nc3ccc(Cl)cc3s2)CC1 | < 0.2

Row | SMILES | solubility kinetic [µg/mL]
49 | O=C(Nc1ccc(F)cc1F)NC1CCCc2ccccc21 (centres undefined) | 0.3 (≈ 0.992 µM)
50 | CCNC(=S)Nc1cccc(S(=O)(=O)NC2=NCCC2)c1 | 37.9 (≈ 116 µM)
51 | CCOC(=O)C1CCN(C(=O)Nc2ccc(OC(F)(F)F)cc2)CC1 | 16.1 (≈ 44.7 µM)
52 | Cc1ccccc1C(=O)NCC(=O)O | > 29
53 | O=C(CSc1nccc(=O)[nH]1)Nc1ccc(Oc2ccccc2)cc1 | 11.5 (≈ 32.5 µM)
54 | C/C(=N\Nc1ccccc1C(=O)O)c1ccncc1 | > 38.3
55 | CCc1nc2ccc(Cc3ccc4nc(CC)[nH]c4c3)cc2[nH]1 | > 45.7
56 | CCOn1c(=O)c(-c2ccccc2)[n+]([O-])c2ccccc21 | > 42.3
57 | O=C(Nc1cc2c3c(c1)CC(=O)N3CCC2)C1CCCCC1 | > 44.8
58 | CN(CC(=O)NCCc1ccc(S(N)(=O)=O)cc1)CC(=O)Nc1ccc(Cl)cc1 | > 65.8
59 | C=CCn1c(COc2ccccc2OC)nc2ccccc21 | 10.2 (≈ 34.7 µM)
60 | CSC1=NC2(CCCCC2)CC12C=CC(=O)C=C2 | 36.2 (≈ 138 µM)
61 | CC(CCc1ccccc1)NC(C)C(O)c1ccc(O)cc1.Cl (centres undefined) | > 50.4
62 | CC(=O)Nc1ccc2sccc2c1 | 27.9 (≈ 146 µM)
63 | Cc1cc(C(=O)COC(=O)c2cccc(NS(C)(=O)=O)c2)c(C)n1CC1CCCO1 (centres undefined) | 43.5 (≈ 100 µM)
64 | NC(=S)Nc1cc(Cl)ccc1Cl | 30.2 (≈ 137 µM)
65 | CCc1nn(CC(=O)Nc2cc(C)ccc2C)c(=N)s1.Cl | > 49
66 | CC(=O)NCCC(=O)Nc1nc2c(ccc3ccccc32)s1 | 1.7 (≈ 5.42 µM)
67 | O=C1C2CCN(CC2)C12CC2c1ccc(C(F)(F)F)cc1 (centres undefined) | 23.9 (≈ 80.9 µM)
68 | COc1ccc2nc(NC(=O)c3ccc([N+](=O)[O-])o3)sc2c1 | 2 (≈ 6.26 µM)
69 | COc1ccc(-c2nc(C)sc2CC(=O)O)cc1OC | 42 (≈ 143 µM)
70 | CCOC(=O)c1sc(NC(=O)c2ccoc2C)c(C(N)=O)c1C | 7.3 (≈ 21.7 µM)
71 | O=S(=O)(Nc1nc2ccc(Cl)cc2s1)c1cccs1 | 12.2 (≈ 36.9 µM)
72 | O=C(CNC(=O)c1ccc(Cl)cc1Cl)OCc1cn2cc(Br)ccc2n1 | 29.7 (≈ 65 µM)

Row | SMILES | solubility kinetic [µg/mL]
73 | Cc1ccc(CNS(=O)(=O)c2c(N)n(C)c(=O)n(C)c2=O)cc1 | 41.3 (≈ 122 µM)
74 | CCC1CCCCN1C(=S)NC(=O)c1ccco1 (centres undefined) | > 40
75 | Cc1ccc(N2CC(=O)N(c3ccc(C)cc3)CC2=O)cc1 | 8.6 (≈ 29.2 µM)
76 | COC(=O)c1ccc(N2CCN(c3ccccc3)CC2)nc1 | 1.7 (≈ 5.72 µM)
77 | COCc1ccc(C(=O)Nc2ccc(C(=O)O)cc2)o1 | > 41.3
78 | Cc1ccc2c(c1)sc1nc(=O)n(-c3ccccc3)c(=O)n12 | 2.3 (≈ 7.43 µM)
79 | Cc1cc(=O)n2c3ccccc3n(CC(O)CN3CCOCC3)c2c1C#N (centres undefined) | > 55
80 | Cc1ccc(S(=O)(=O)N2CCc3ccccc3C2)cc1C | < 0.6
81 | CCOC(=O)c1cc2c(nc1N)CCCC2 | 24.7 (≈ 112 µM)
82 | COc1ccc(C(=O)OCC(=O)NCc2ccc3c(c2)OCO3)cc1S(=O)(=O)N1CCOCC1 | 12.2 (≈ 24.8 µM)
83 | O=C(COC(=O)/C=C/c1ccc(OC(F)F)cc1)NC1CCCCCC1 | 4.6 (≈ 12.5 µM)
84 | Cc1cccc(OCCCN2CCOCC2)c1 | 28 (≈ 119 µM)
85 | O=C1CCc2cc(S(=O)(=O)Nc3ccc(F)cc3)ccc2N1 | > 48.1
86 | CC(Sc1nncs1)C(=O)NC1CCCCC1C (centres undefined) | > 42.8
87 | O=C(Nc1ccc2c(c1)OCCO2)c1ccc(Cl)cc1Cl | 3.5 (≈ 10.8 µM)
88 | O=C(NCC(O)c1ccc([N+](=O)[O-])cc1)C1CCCCC1 (centres undefined) | 28.4 (≈ 97.1 µM)
89 | Cn1cc(S(=O)(=O)NCc2ccc3c(c2)OCO3)c(C(F)(F)F)n1 | > 54.5
90 | Cc1ccc(S(=O)(=O)N2CCOCC2)cc1NC(=O)CN1C(=O)NC(C)(c2ccc(Cl)cc2Cl)C1=O (centres undefined) | 46.1 (≈ 83 µM)
91 | CCOC(=O)c1ccc(NC2=CC(=O)CC(c3ccco3)C2)cc1 (centres undefined) | 9.6 (≈ 29.5 µM)
92 | Cn1c2c(c3cc([N+](=O)[O-])ccc31)CCCC2 | < 0.2
93 | COc1ccc(CCNC(=S)c2ccccc2)cc1OC | > 45.2
94 | Cc1ccc(CNc2nc3ccccc3n2C)o1 | > 36.2
95 | Cc1ccc(-c2nc(N3CCN(C)CC3)c3ccccc3n2)cc1.Cl | 49
96 | CC1CCCC(NC(=O)C2CC(=O)N(Cc3ccccc3)C2)C1C (centres undefined) | 37.4 (≈ 114 µM)

Row | SMILES | solubility kinetic [µg/mL]
97 | O=c1cc(C(F)(F)F)nc(SC/C=C/c2ccccc2)[nH]1 | > 46.8
98 | N#C/C(=C\c1cccc(O)c1)C(=O)Nc1ccc2c(c1)OCCO2 | 2 (≈ 6.21 µM)
99 | COc1nc(N)nc(N)c1NS(=O)(=O)c1ccc(C)cc1 | > 46.4
100 | Cn1c(=O)n(C)c2cc(NC(=O)Cc3ccccc3[N+](=O)[O-])ccc21 | 47.6 (≈ 140 µM)
101 | COc1ccc(NC(=O)CSc2ncnc3sc(C)cc23)cc1 | 1.2 (≈ 3.47 µM)
102 | CCN(CC)C(=O)c1ccc(NC(=O)c2ccc3c(c2)NC(=O)CS3)cc1 | 6.2 (≈ 16.2 µM)
103 | CCN(C/C=C/c1ccccc1OC)Cc1ccccc1 | 18.3 (≈ 65 µM)
104 | COc1ccc(CNC(=O)c2cc(=O)c3ccccc3o2)cc1 | 12 (≈ 38.8 µM)
105 | Cc1ccc(S(=O)(=O)N2CCN(C(=O)COC(=O)c3cncc(Br)c3)CC2)c(C)c1 | 5.3 (≈ 10.7 µM)
106 | COc1cccc(NC(=O)C2CCCN(S(C)(=O)=O)C2)c1 (centres undefined) | > 46.9
107 | CC(=O)Nc1ccc(NS(=O)(=O)c2cccc3nonc23)cc1 | > 49.8
108 | NC(=O)C1CCCN(C(=O)CNC(=O)C23CC4CC(CC(C4)C2)C3)C1 (centres undefined) | 38.3 (≈ 110 µM)
109 | CN(C)NC(=O)c1csnc1-c1c(Cl)cccc1Cl | > 47.4
110 | CC(C)(C)CC(C)(C)NC(=O)c1ccccc1 | > 35
111 | O=[N+]([O-])c1ccc(SCCO)nc1SCCO | > 41.4
112 | Cc1ccc2nc(SCC(=O)c3ccc(O)cc3O)[nH]c2c1 | 6.4 (≈ 20.4 µM)
113 | Cc1cccc2[nH]c(CN(C)Cc3nc(CC4CC4)no3)nc12 | 45.9 (≈ 147 µM)
114 | CCC(=O)c1ccc(OCC(=O)OCC(=O)N(CCC#N)c2ccc3c(c2)OCCO3)cc1 | 47.5 (≈ 105 µM)
115 | CC(=O)NCc1ccc(-c2nc3ccccc3s2)cc1 | 8.6 (≈ 30.5 µM)
116 | Cc1ccc2c(C)cc(=S)[nH]c2c1 | 7.1 (≈ 37.5 µM)
117 | COC(=O)c1cn(CC(=O)Nc2ccc(F)cc2)c2ccccc12 | < 0.3
118 | Cc1cc(Cl)ccc1OC(C)C(=O)NCCCn1ccnc1 (centres undefined) | > 48.3
119 | Cc1cc(NC(=O)COC(=O)CNS(=O)(=O)c2c(F)cc(F)cc2Br)no1 | > 70.2

— PubChem BioAssay AID1996
